Experimental data: patent publication US8883140B2 (Henkel AG & Co. KGaA, priority 2010, dated 2014)

System: variant F49 of the protease from Bacillus lentus
Test: Residual proteolytic activity after storage in liquid washing agent (suc-AAPF-pNA release)
Type: biochemical
Details: 13 days at 30° C., based on initial activity of 100%
From the text: A liquid washing agent of the following composition served as a baseline washing agent formulation (all indications in percent by weight): 0.3 to 0.5% xanthan, 0.2 to 0.4% antifoaming agent, 6 to 7% glycerol, 0.3 to 0.5% ethanol, 4 to 7% FAEOS (fatty alcohol ether sulfate), 24 to 28% nonionic surfactants, 1 to 2% sodium citrate (dihydrate), 2 to 4% soda, 14 to 16% coconut fatty acids, 0.5% HEDP (1-hydroxyethane-(1,1-diphosphonic acid)), 0 to 0.4% PVP (polyvinylpyrrolidone), 0 to 0.05% optical brightener, 0 to 0.001% dye, remainder demineralized water.
The oligoaminobiphenyl oligocarboxylic acid 3,3-diamino-[1,1-biphenyl]-2,4-dicarboxylic acid was incorporated into this formulation as the component stabilizing the hydrolytic enzyme, as indicated below (see Table 1, indications in this regard in wt %). Comparison formulations that contained either boric acid as an enzyme stabilizer, or no enzyme stabilizer, served as controls. The protease used was variant F49 of the protease from Bacillus lentus in accordance with WO 95/23221 (quantity used: 1 wt % active substance).
After storage, the respective residual proteolytic activity was determined by way of the release of the para-nitroaniline (pNA) chromophore from the suc-L-Ala-L-Ala-L-Pro-L-Phe-p-nitroanilide substrate (suc-AAPF-pNA) (SEQ ID NO. 1). The protease cleaves the substrate and releases pNA. The release of pNA causes an increase in extinction at 410 nm, the time course of which is an indication of enzymatic activity (see Del Mar et al., 1979). Measurement occurred at a temperature of 25° C., at pH 8.6 and at a wavelength of 410 nm. The measurement time was 5 min, with a measurement interval from 20 s to 60 s. The proteolytic activity values obtained are indicated in Table 1 below, based on an initial activity of 100% when storage began.

[1] = 1.0 wt % (1%) stabilizer in baseline liquid washing agent

Nc1cc(-c2cccc(N)c2C(=O)O)ccc1C(=O)O
residual proteolytic activity after storage (0.1 wt % stabilizer in baseline liquid washing agent): 30.2% | residual proteolytic activity after storage (0.5 wt % stabilizer in baseline liquid washing agent): 43.5% | residual proteolytic activity after storage [1]: 48.0% | residual proteolytic activity after storage (2.0 wt % stabilizer in baseline liquid washing agent): 73.6%

OB(O)O [boric acid, reference compound]
residual proteolytic activity after storage [1]: 74.9%
